From patent US20240366648A1, “NAD-AUGMENTATION THERAPY FOR PARKINSON'S DISEASE” (Vestlandets Innovasjonsselskap AS (VIS), priority 2021, published 2024)

Assays:
NAD metabolome in PBMCs = assay: Metabolomic analysis (LC-MS) in PBMCs; type: in vivo, human; settings: oral NR 1000 mg/day, 30 days
Description: (§1) Biological material was collected at both visits, following a minimum 6-hour fasting and within 6 hours after study drug intake for visit 2. Sampling included whole blood, serum, peripheral blood mononuclear cells (PBMCs), cerebrospinal fluid (CSF) and muscle biopsy. Lumbar puncture was performed according to standard clinical procedures to collect 10 ml CSF. Needle biopsy of the vastus lateralis muscle was performed using a Bard Magnum biopsy gun (BD©, United States) and 12G×10 cm biopsy needles. Muscle biopsies were immediately dissected to remove any non-muscle tissue (e.g., fat or fascia) and snap-frozen in liquid nitrogen.
Standard substances of all the targeted compounds were used to prepare stock standard solutions and these solutions were mixed and diluted to make serially diluted standard solutions in an internal standard solution containing 11 isotope-labeled compounds (NAD-13C5, NADH-d5, nicotinamide riboside-d4, nicotinic-d4 acid, nicotinic acid-d4 riboside, AMP-15N5, ATP-13C10, nicotinamide-d4, 1-methylnicotinamide-d3, adenosine-13C5 and GTP-13C10) in a concentration range of 0.0002 to 20 nmol/mL. […] For metabolomic analyses in PBMCs, several aliquots of one sample were thawed on ice, centrifuged (10 min, 350×g, 4° C.), resuspended in ice-cold PBS and counted on a countess II cell counter. […]
For UPLC-MRM/MS, 10 μL aliquots of each standard solution and each sample solutions were injected to run LCMRM/MS either on a Waters Acquity UPLC coupled to a Sciex QTRAP 6500 Plus mass spectrometer with (−) ion detection or ESI or on an Agilent 1290 UHPLC system coupled to an Agilent 6495B QQQ mass spectrometer with (+) ion detection. […] Concentrations of individual metabolites detected in each sample were calculated by constructing linear-regression curves of individual metabolites with the analyte-to-internal standard peak area ratios (As/Ai) of standard solutions in each set of LC-MS runs and then by interpolating the calibration curves with the as/Ai values measured from injections of sample solutions in an appropriate concentration range for each compound. […]

[1] = system: NAD metabolome in skeletal muscle; assay: Metabolomic analysis (LC-MS) in skeletal muscle biopsies; type: in vivo, human; settings: oral NR 1000 mg/day, 30 days
Description: as §1
Standard substances of all the targeted compounds were used to prepare stock standard solutions and these solutions were mixed and diluted to make serially diluted standard solutions in an internal standard solution containing 11 isotope-labeled compounds (NAD-13C5, NADH-d5, nicotinamide riboside-d4, nicotinic-d4 acid, nicotinic acid-d4 riboside, AMP-15N5, ATP-13C10, nicotinamide-d4, 1-methylnicotinamide-d3, adenosine-13C5 and GTP-13C10) in a concentration range of 0.0002 to 20 nmol/mL. Muscle tissues were added with water at 2.5 μL/mg raw material and then homogenized on an MM 400 mixer mill for 1 min twice. Methanol at 7.5 μL/mg raw material was then added and the samples were homogenized for 1 min three times. The samples were then placed at −20° C. for 2 h before centrifugation. 20 μL of the supernatant was mixed with 180 μL of the internal standard solution. The samples were then placed at 5° C. for 1 h and then centrifuged for 5 min at 21,000 g. The clear supernatants were used for LC-MS analyses. For metabolomic analyses in PBMCs, several aliquots of one sample were thawed on ice, centrifuged (10 min, 350×g, 4° C.), resuspended in ice-cold PBS and counted on a countess II cell counter. The equivalent volume of 10 Mio live cells was transferred into a new tube, centrifuged (10 min, 350×g, 4° C.), the supernatant removed, and the pellet immediately frozen on dry ice. Each PBMC sample was made into 75% methanol at a concentration of 50 μL per 1 Mio cells. After cell lysis on a MM 400 mixer mill for 1 min twice, the sample was centrifuged. 20 μL of the clear supernatant was mixed with 180 μL of the internal standard solution and was then used for LC-MS analysis.
For UPLC-MRM/MS, 10 μL aliquots of each standard solution and each sample solutions were injected to run LCMRM/MS either on a Waters Acquity UPLC coupled to a Sciex QTRAP 6500 Plus mass spectrometer with (−) ion detection or ESI or on an Agilent 1290 UHPLC system coupled to an Agilent 6495B QQQ mass spectrometer with (+) ion detection. For UPLC-(−) MRM/MS, a reversed-phase C18 LC column (2.1*100 mm, 1.8 μm) was used for LC separation, with the use of a tributylamine-ammonium acetate buffer (solvent A) and acetonitrile (solvent B) as the mobile phase for gradient elution at 50° C. and 0.25 mL/min. For UPLC-(+) MRM/MS, a reversed-phase C18 column (2.1*150 mm, 1.8 μm) was used for LC separation, with the use of hepatofluorobutyrate buffer (solvent A) and methanol (solvent B) as the mobile phase for gradient elution at 50° C. and 0.3 mL/min. Concentrations of individual metabolites detected in each sample were calculated by constructing linear-regression curves of individual metabolites with the analyte-to-internal standard peak area ratios (As/Ai) of standard solutions in each set of LC-MS runs and then by interpolating the calibration curves with the as/Ai values measured from injections of sample solutions in an appropriate concentration range for each compound. Sample preparation and metabolomic analyses were conducted at Creative Proteomics, NY, USA.
The between visit change ([visit 2]−[visit 1]) in MDS-UPDRS (total of subsections I-III; and individual subsections I, II and III) was compared between the NR and placebo groups using independent Student's t-test. […]

In the case of `NC(=O)c1ccc[n+]([C@@H]2O[C@H](CO)[C@@H](O)[C@H]2O)c1` [NR, nicotinamide riboside], the “Me-Nam level in PBMCs” value (NAD metabolome in PBMCs) is reported as “increase”, the “NAAD level in PBMCs” value (NAD metabolome in PBMCs) is reported as “increase” and the “acetyl-CoA, CoA, SAM and its metabolites, energy compounds such as ATP in PBMCs” value (NAD metabolome in PBMCs) is reported as “no significant change”. For the same compound, the “Me-2-PY level in muscle tissue after treatment” value [1] was “strongly elevated”, the “Me-4-PY level in muscle tissue after treatment” value [1] was “strongly elevated” and the “NAAD level in muscle tissue after treatment” value [1] was “strongly elevated”. The “Nam N-oxide level in muscle tissue after treatment” value [1] was “strongly elevated”, the “acetyl-CoA, CoA, SAM and its metabolites, energy compounds such as ATP in muscle” value [1] was “no significant change” and the “methyl-Nam (Me-Nam) level in muscle tissue after treatment” value [1] was “strongly elevated”. The “steady state levels of NAD (NAD+ and NADH), NAD precursors and intermediates in muscle” value [1] was “not significantly changed”.
